Series [1] deals with MIA PaCa-2. Put plainly: Inhibition of PI3K expression in human MIA PaCa-2 cells at 1.25 to 5.0 uM incubated for 48 hrs by Western blotting analysis. In kind it is functional, cell-based. The settings on record: dose 1.25-5 µM.
Series [2] concerns HepG2. Put plainly: Antiproliferative activity against human HepG2 cells assessed as inhibition of cell proliferation incubated for 48 hrs by CCK-8 assay. In kind it is functional, cell-based. To be noted: HepG2, 48 h. A general note: Tetrazolium assays rely on reduction of a dye to a coloured formazan, in cell work by metabolically active cells.
The test system of series [3] is MCF7. Briefly: Inhibition of colony formation in human MCF7 cells assessed as reduction in number of colonies at 1.0 to 2.0 uM incubated for […] by crystal violet staining based microscopic analysis. In kind it is functional, cell-based. The settings on record: dose 1-2 µM.
Series [4] deals with MCF7. Put plainly: Inhibition of cell invasion in human MCF7 cells assessed as decrease in number of invading cells at 0.5 to 1.0 uM incubated for 48 hrs by crystal violet staining based transwell microscopic analysis. Type of series: functional. To be noted: dose 0.5-1 µM.
Series [5] relates to MIA PaCa-2. Put plainly: Induction of apoptosis in human MIA PaCa-2 cells assessed as increase in nuclear fragmentation at 2.5 uM incubated for 48 hrs by Hoechst 33342 staining based fluorescence microscopic analysis. In kind it is functional, cell-based.
The subject of series [6] is MCF7. Briefly: Induction of apoptosis in human MCF7 cells assessed as increase in Cyt-C level at 1.25 to 5.0 uM incubated for 48 hrs by Western blotting analysis. Type of series: functional, cell-based. To be noted: dose 1.25-5 µM. In general terms: In western blotting, separated proteins are transferred to a membrane and probed.
Series [7] relates to MIA PaCa-2. Put plainly: Inhibition of colony formation in human MIA PaCa-2 cells assessed as reduction in number of colonies at 0.5 to 1.0 uM incubated for […] by crystal violet staining based microscopic analysis. Type of series: functional, cell-based. The settings on record: dose 0.5-1 µM.
Series [8] relates to MIA PaCa-2. Briefly: Induction of apoptosis in human MIA PaCa-2 cells assessed as upregulation of cleaved PARP expression at 1.25 to 5.0 uM incubated for 48 hrs by Western blotting analysis. Type of series: functional, cell-based. To be noted: dose 1.25-5 µM.
For series [9], the system named is MIA PaCa-2. Briefly: Inhibition of cell migration in human MIA PaCa-2 cells assessed as wider scratch areas at 0.5 to 1.0 uM incubated for 48 hrs by scratch assay. Type of series: functional, cell-based. To be noted: dose 0.5-1 µM.
Series [10] concerns MIA PaCa-2. Briefly: Inhibition of AKT expression in human MIA PaCa-2 cells at 1.25 to 5.0 uM incubated for 48 hrs by Western blotting analysis. To be noted: dose 1.25-5 µM. In kind it is functional, cell-based.
Series [11] has as its system MIA PaCa-2. Put plainly: Induction of apoptosis in human MIA PaCa-2 cells assessed as increase in Bax/Bcl-2 ratio at 1.25 to 5.0 uM incubated for 48 hrs by Western blotting analysis. The settings on record: dose 1.25-5 µM. In kind it is functional, cell-based.
For series [12], the system named is MCF7. Put plainly: Induction of apoptosis in human MCF7 cells assessed as upregulation of Bax/Bcl-2 ratio at 1.25 to 5.0 uM incubated for 48 hrs by Western blotting analysis. In kind it is functional, cell-based. The settings on record: dose 1.25-5 µM.
Series [13] in a line: Toxicity in female BALB/c mouse xenografted with mouse 4T1 cells assessed as morphological change in heart at 10 mg/kg, ip administered every 2 days by H and E staining based analysis. Type of series: organism-based. The settings on record: in vivo, 48 h.
Series [14] has as its system MCF7. Briefly: Induction of apoptosis in human MCF7 cells assessed as increase in fluorescence intensity at 2.5 uM incubated for 48 hrs by Hoechst 33342 staining based fluorescence microscopic analysis. In kind it is functional, cell-based.

Calls of active or inactive are those of the source. The rule behind the calls is not given here.

Consider `C=C1C(=O)[C@]23[C@H](OC(=O)c4ccc(N=C=S)cc4)[C@H]1CC[C@H]2[C@@]12CO[C@]3(O)[C@@H](O)[C@@H]1C(C)(C)CC[C@@H]2O`, for which the inhibition result in [1], in series [3], in series [4], in series [7], in series [9] and in series [10] was “Active” in each case. The IC50 in [2] was 7.48 µM. The outcome in series [5], in series [6], in series [8], in series [11], in series [12] and in series [14] was Active. Besides, the Activity result in series [13] is on record as “Non-toxic”.

As usually defined, the IC50 is the point on the concentration scale where inhibition reaches its midpoint.

The record behind these values is ChEMBL document CHEMBL6087397, “H2S-releasing oridonin derivatives with improved antitumor activity by inhibiting the PI3K/AKT pathway” (Bioorg Med Chem, 2024).
